From US20240270792A1, “SHORT ANTIMICROBIAL PEPTIDES” (priority 2021, published 2024)
In brackets after ≈: the same amount, converted by molar mass. Square brackets hold non-standard residues; d marks the D form. Ends that are not written are not given here. Peptide text beside a SMILES is read from it. hPhe = N[C@@H](CCc1ccccc1)C(=O)O; αMeF = C[C@](N)(Cc1ccccc1)C(=O)O

What was measured:
[1] = tested on: Acinetobacter baumannii ATCC 19606; type: cell-based; details: Gram-negative, 18-24 hrs at 37° C.
Text: (§1) The following strains were used: • Gram-negative bacteria: Escherichia coli ATCC 25922, Pseudomonas aeruginosa ATCC 27853, Acinetobacter baumannii ATCC 19606, Klebsiella pneumoniae ATCC 13883, • Gram-positive bacteria: Staphylococcus aureus ATCC 25923, multi-drug resistant Staphylococcus aureus ATCC BAA-44, Streptococcus pyogenes ATCC 19615, Listeria ivanovii Li4pVS2, Enterococcus faecalis ATCC 29212,
(§2) For each strain, a standard inoculum of approximately 10^6 bacteria/mL (exponential growth phase) was prepared. To this end, a colony isolated on LB agar previously inoculated with one of the strains was cultured in 4 ml of LB broth medium, except for S. pyogenes and L. ivanovii which were grown in BHI (Brain Heart Infusion) from a colony isolated on BHI agar. Liquid cultures were then incubated for 2 to 3 hrs at 37° C. with shaking for the bacteria to reach exponential growth phase. After centrifugation, most of the bacterial suspensions were diluted in Mueller-Hinton (MH) broth medium to an OD630nm of 0.01, which corresponds to a concentration of approximately 10^6 cfu/mL (cfu: colony forming unit). A different medium was used for E. faecalis (LB) and for S. pyogenes and L. ivanovii (BHI).
(§3) The minimum inhibitory concentration (MIC) of each peptide was determined by a test of growth inhibition in broth medium. […] The test was performed in a sterile 96-well microtiter plate. A series of increasing concentrations of peptide (2 to 400 μM) was first prepared in sterile MilliQ water. 50 μL of each peptide concentration were mixed into the well with 50 μL of bacterial suspension (10^6 cfu/ml). The microtiter plate was then incubated for 18-24 hrs at 37° C. with shaking. Bacterial growth was determined by measuring OD at 630 nm (turbidity) on a plate reader. Tests were carried out in triplicate for each peptide concentration and at least three independent experiments were performed to determine the MIC value.
(§4) The growth inhibition negative control was obtained by replacing the solution containing the peptide with 50 μL of sterile MilliQ water. The positive control allowing the complete inhibition of bacterial growth was obtained by replacing the solution containing the peptide with 50 μL, of 0.7% formaldehyde.

[2] = tested on: Enterococcus faecalis ATCC 29212; type: cell-based; details: Gram-positive, LB, 18-24 hrs at 37° C.
Text: as §1, §2, §3, §4

[3] = tested on: Escherichia coli ATCC 25922; type: cell-based; details: Gram-negative, 18-24 hrs at 37° C.
Text: as §1, §2, §3, §4

[4] = tested on: Listeria ivanovii Li4pVS2; type: cell-based; details: Gram-positive, BHI, 18-24 hrs at 37° C.
Text: as §1, §2, §3, §4

[5] = tested on: Pseudomonas aeruginosa ATCC 27853; type: cell-based; details: Gram-negative, 18-24 hrs at 37° C.
Text: as §1, §2, §3, §4

[6] = tested on: Staphylococcus aureus; type: cell-based; details: Gram-positive, 18-24 hrs at 37° C.
Text: as §1, §2, §3, §4

[7] = tested on: Streptococcus pyogenes ATCC 19615; type: cell-based; details: Gram-positive, BHI, 18-24 hrs at 37° C.
Text: as §1, §2, §3, §4

[8] = Cytotoxicity assay: hemolysis of erythrocytes; type: cell-based; details: 50% hemolysis, human erythrocytes, 1 h at 37° C., pH 7.4; read-out: LC50 Erythrocytes Human
Description: Hemolytic experiments were performed using human erythrocytes obtained from healthy adult donors (Etablissement Français du sang, Paris, France) according to a previously described protocol (Abbassi et al., “Isolation, characterization and molecular cloning of new temporins from the skin of the North African ranid Pelophylax saharica”, Peptides, 2008, 29: 1526-33).
Briefly, synthetic peptides (1-200 μM, final concentrations) were incubated (100 μL, final volume) with erythrocytes (2×10^7 cells) in Dulbecco's phosphate-buffered saline (pH 7.4) for 1 h at 37° C. After centrifugation (12,000×g, 15 s), the absorbance of the supernatant was measured at 450 nm.

[9] = tested on: Klebsiella pneumoniae ATCC 13883; assay: MIC, growth inhibition in broth medium; type: cell-based; details: Gram-negative, 18-24 hrs at 37° C.
Text: as §1
as §2, with “A different medium was used for E. faecalis (LB) and for S. pyogenes and L. ivanovii (BHI).” left out
The minimum inhibitory concentration (MIC) of each peptide was determined by a test of growth inhibition in broth medium. […] Bacterial growth was determined by measuring OD at 630 nm (turbidity) on a plate reader. […]

[10] = tested on: Gram-positive and Gram-negative bacteria; details: cited from earlier work

CC[C@H](C)[C@H](NC(=O)[C@H](CCCNC(=N)N)NC(=O)[C@H](CO)NC(=O)[C@H](CC(C)C)NC(=O)[C@H](Cc1ccccc1)NC(=O)[C@H](Cc1ccccc1)NC(=O)[C@@H](N)Cc1ccccc1)C(=O)N[C@@H](Cc1ccccc1)C(N)=O [compound 2]
MIC AB [1]: >100 µM | MIC EF [2]: 100 µM (≈ 108 µg/mL) | MIC EC [3]: 50 µM (≈ 53.8 µg/mL) | MIC LI [4]: 50 µM (≈ 53.8 µg/mL) | MIC PA [5]: >100 µM | MIC SA [6]: 25 µM (≈ 26.9 µg/mL) | MIC SP [7]: 25 µM (≈ 26.9 µg/mL) | HC50 at 1 h [8]: > 200 µM

CC[C@H](C)[C@H](NC(=O)[C@H](CCCNC(=N)N)NC(=O)[C@H](CCCNC(=N)N)NC(=O)[C@H](CC(C)C)NC(=O)[C@H](CCc1ccccc1)NC(=O)[C@H](Cc1ccccc1)NC(=O)[C@@H](N)Cc1ccccc1)C(=O)N[C@@H](Cc1ccccc1)C(N)=O [compound 19]
MIC AB [1]: 25 µM (≈ 29 µg/mL) | MIC EC [3]: 12.5 µM (≈ 14.5 µg/mL) | MIC PA [5]: 25 µM (≈ 29 µg/mL) | MIC SA [6]: 6.25 µM (≈ 7.24 µg/mL) | MIC SP [7]: 12.5 µM (≈ 14.5 µg/mL) | HC50 at 1 h [8]: 170 µM

N=C(N)NCCC[C@H](NC(=O)[C@H](CCCNC(=N)N)NC(=O)[C@H](Cc1ccccc1)NC(=O)[C@H](Cc1ccccc1)NC(=O)[C@H](Cc1ccccc1)NC(=O)[C@@H](N)Cc1ccccc1)C(=O)N[C@@H](Cc1ccccc1)C(=O)N[C@@H](Cc1ccccc1)C(N)=O [compound 39]
MIC AB [1]: 25 µM (≈ 30.3 µg/mL) | MIC EF [2]: 50 µM (≈ 60.6 µg/mL) | MIC EC [3]: 12.5 µM (≈ 15.2 µg/mL) | MIC LI [4]: 12.5 µM (≈ 15.2 µg/mL) | MIC PA [5]: 12.5 µM (≈ 15.2 µg/mL) | MIC SA [6]: 6.25 µM (≈ 7.58 µg/mL) | MIC SP [7]: 3 µM (≈ 3.64 µg/mL) | HC50 at 1 h [8]: > 200 µM

N=C(N)NCCC[C@H](NC(=O)[C@H](CCCNC(=N)N)NC(=O)[C@H](Cc1ccccc1)NC(=O)[C@H](CCCNC(=N)N)NC(=O)[C@H](Cc1ccccc1)NC(=O)[C@@H](N)Cc1ccccc1)C(=O)N[C@@H](Cc1ccccc1)C(=O)N[C@@H](Cc1ccccc1)C(N)=O [compound 50]
MIC AB [1]: 100 µM (≈ 122 µg/mL) | MIC EF [2]: 100 µM (≈ 122 µg/mL) | MIC PA [5]: 12.5 µM (≈ 15.3 µg/mL) | MIC SA [6]: 6.25 µM (≈ 7.63 µg/mL) | MIC SP [7]: 6.25 µM (≈ 7.63 µg/mL) | HC50 at 1 h [8]: > 200 µM

N=C(N)NCCC[C@H](NC(=O)[C@H](CCCNC(=N)N)NC(=O)[C@H](Cc1ccccc1)NC(=O)[C@H](Cc1ccccc1)NC(=O)[C@H](CCc1ccccc1)NC(=O)[C@@H](N)Cc1ccccc1)C(=O)N[C@@H](Cc1ccccc1)C(=O)N[C@@H](Cc1ccccc1)C(N)=O [compound 51] (H-F[hPhe]FFRRFF-NH2; N-terminus assumed)
MIC KP [9]: 25 µM (≈ 30.7 µg/mL) | CC50 at 1 h [8]: 159 µM

N=C(N)NCCC[C@H](NC(=O)[C@H](CCCNC(=N)N)NC(=O)[C@H](Cc1ccccc1)NC(=O)[C@H](CCc1ccccc1)NC(=O)[C@H](Cc1ccccc1)NC(=O)[C@@H](N)Cc1ccccc1)C(=O)N[C@@H](Cc1ccccc1)C(=O)N[C@@H](Cc1ccccc1)C(N)=O [compound 53]
MIC AB [1]: 12.5 µM (≈ 15.3 µg/mL) | MIC EF [2]: 50 µM (≈ 61.3 µg/mL) | MIC EC [3]: 12.5 µM (≈ 15.3 µg/mL) | MIC PA [5]: 12.5 µM (≈ 15.3 µg/mL) | MIC SA [6]: 3 µM (≈ 3.68 µg/mL) | MIC SP [7]: 6.25 µM (≈ 7.67 µg/mL) | HC50 at 1 h [8]: 140 µM

FF(α-MeF)LSRIFamide (FF[αMeF]LSRIF-NH2; N-terminus assumed; SMILES CC[C@H](C)[C@H](NC(=O)[C@H](CCCNC(=N)N)NC(=O)[C@H](CO)NC(=O)[C@H](CC(C)C)NC(=O)[C@](C)(Cc1ccccc1)NC(=O)[C@H](Cc1ccccc1)NC(=O)[C@@H](N)Cc1ccccc1)C(=O)N[C@@H](Cc1ccccc1)C(N)=O) [SEQ ID No 7, excluded known SHf analog]
antimicrobial activity [10]: strong activity against Gram-positive and Gram-negative bacteria, including Klebsiella pneumoniae

FFFFKRFF-NH2 [compound 42]
MIC EF [2]: >100 µM | MIC PA [5]: 12.5 µM | MIC SA [6]: 6.25 µM | MIC SP [7]: 12.5 µM | HC50 at 1 h [8]: > 200 µM

FFFFRKFF-NH2 [compound 43]
MIC AB [1]: 12.5 µM | MIC EF [2]: 100 µM | MIC PA [5]: 12.5 µM | MIC SP [7]: 12.5 µM | HC50 at 1 h [8]: > 200 µM

FFFFSRFF-NH2 [compound 34]
MIC AB [1]: >100 µM | MIC EF [2]: 100 µM | MIC EC [3]: >100 µM | MIC LI [4]: 25 µM | MIC PA [5]: >100 µM | MIC SA [6]: 12.5 µM | MIC SP [7]: 6.25 µM | HC50 at 1 h [8]: > 200 µM

FFFRRRFF-NH2 [compound 38]
MIC AB [1]: 100 µM | MIC EF [2]: >100 µM | MIC EC [3]: 25 µM | MIC PA [5]: 25 µM | MIC SP [7]: 12.5 µM | HC50 at 1 h [8]: > 200 µM

FFRRFFFF-NH2 [compound 41]
MIC AB [1]: 12.5 µM | MIC EF [2]: 50 µM | MIC EC [3]: 12.5 µM | MIC PA [5]: 12.5 µM | MIC SA [6]: 6.25 µM | MIC SP [7]: 6.25 µM | HC50 at 1 h [8]: > 200 µM

FRFFRRFF-NH2 [compound 49]
MIC EF [2]: >100 µM | MIC PA [5]: 6.25 µM | MIC SP [7]: 25 µM | HC50 at 1 h [8]: > 200 µM

FRFRFRFF-NH2 [compound 55]
MIC EF [2]: >100 µM | MIC SA [6]: 3 µM | MIC SP [7]: 12.5 µM | HC50 at 1 h [8]: > 200 µM

FRFRFRFR-NH2 [compound 56]
MIC AB [1]: 25 µM | MIC EF [2]: 30 µM | MIC EC [3]: 3 µM | MIC SP [7]: 6.25 µM | HC50 at 1 h [8]: > 200 µM

RFFFRRFF-NH2 [compound 72]
MIC AB [1]: 100 µM | MIC EF [2]: >100 µM | MIC PA [5]: 12.5 µM | MIC SA [6]: 6.25 µM | MIC SP [7]: 25 µM | HC50 at 1 h [8]: > 200 µM
